From paper PMC8614999, “A Comparative Analysis of Punicalagin Interaction with PDIA1 and PDIA3 by Biochemical and Computational Approaches” (Biomedicines, 2021)

Columns and labels:
PDIA3 [1] = target: T1, PDIA3 (Homo sapiens, UniProt P30101); assay: Isothermal titration calorimetry, PDIA3; assay type: binding; details: ITC, PDIA3 reduced form, 25 °C
T1 construct: Mature human recombinant PDIA3 protein was expressed and purified; made in house
T1 sequence (P30101 25-505): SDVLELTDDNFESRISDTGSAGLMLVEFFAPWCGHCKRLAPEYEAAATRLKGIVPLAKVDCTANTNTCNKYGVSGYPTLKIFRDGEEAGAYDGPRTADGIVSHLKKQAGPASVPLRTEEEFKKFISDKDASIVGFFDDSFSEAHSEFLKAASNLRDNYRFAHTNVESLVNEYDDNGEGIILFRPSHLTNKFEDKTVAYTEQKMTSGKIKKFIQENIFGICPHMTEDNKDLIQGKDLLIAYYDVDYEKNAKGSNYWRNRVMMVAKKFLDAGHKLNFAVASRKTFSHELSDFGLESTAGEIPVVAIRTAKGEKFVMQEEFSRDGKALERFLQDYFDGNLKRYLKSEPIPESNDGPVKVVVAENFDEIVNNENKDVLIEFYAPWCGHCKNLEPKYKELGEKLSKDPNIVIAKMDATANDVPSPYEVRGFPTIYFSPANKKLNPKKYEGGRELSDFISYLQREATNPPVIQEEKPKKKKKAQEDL
Protocol: (§1) Punicalagin interaction with PDIA3 and PDIA1 was investigated using isothermal titration calorimetry (ITC) with a MicroCal ITC200 (Malvern Instruments, Malvern, UK). […] Protein solution was loaded in the sample cell (0.2 mL), and the syringe was filled with punicalagin 250 µM dissolved in the same buffer. A total of 20 ligand aliquots (the first aliquot of 0.4 µL in 0.8 s and the other 19 aliquots of 2 µL in 4 s) were gradually added to the sample cell at intervals of 200 s each other to allow baseline recovery. The syringe stirring speed was set at 800 rpm. Protein and punicalagin solutions were thoroughly degassed on the MicroCal’s Thermovac machine before loading to avoid air bubble formation during the titration. Data analyses were performed by Origin software version 8.0 (OriginLab, Northampton, MA, USA). The heat of dilution for the ligand was determined in parallel, and this value was subtracted from the integrated data before curve fitting. The integration of the area under each heat burst curve was determined. All injection heats as a function of the molar ratio were plotted and analyzed using the one set of sites model to provide the dissociation constants.

[2] = parameters: method as in printed; details: background statement, ref not given; cited from earlier work
PDIA3 [3] = target: T1, PDIA3; assay: Disulfide reductase activity with di-E-GSSG, PDIA3; assay type: biochemical; details: PDIA3, di-E-GSSG substrate
Protocol: (§2) PDIAs disulfide reductase activity was monitored by using di-eosin glutathione disulfide (di-E-GSSG) as a fluorogenic substrate of PDIAs. Di-E-GSSG was synthesized by the reaction of eosin isothiocyanate with oxidized glutathione (GSSG) according to the method of Raturi and Mutus with some modifications. Protein activity was evaluated by monitoring the emission fluorescence increase (λem = 545 nm and λex = 525 nm), and the effect of punicalagin (concentration ranging from 0.2 to 50 µM) was tested. Inhibition constants were extrapolated by GraphPad Prism 8.0 software (GraphPad Software, San Diego, CA, USA), plotting the obtained data as logarithm dose-response curves.
(§3) Punicalagin effects have also been studied on the enzymatic activity of PDIA3 and PDIA1. It is well known that both proteins catalyze oxidoreductase and isomerase reactions involving thiol groups and disulfide bonds. PDIs’ reductase activity was evaluated using di-E-GSSG as fluorogenic substrate and was calculated as the initial velocity in fluorescence increased due to the reduction in the fluorogenic substrate. […] For comparison purposes, the punicalagin inhibitory effect was extended to PDIA1. Results were analyzed as logarithmic dose response, and the half-maximal inhibitory concentrations (IC50) were evaluated (Figure 4).

PDIA3 [4] = target: T1, PDIA3; assay: Differential scanning calorimetry thermal denaturation, PDIA3; assay type: binding; details: reduced PDIA3 5 µM, punicalagin 25 µM
Protocol: (§4) Protein stability in solution was assayed by differential scanning calorimetry (DSC) with a Microcal VP-DSC (Microcal, Northampton, MA, USA) testing both proteins. […] The reference cell was filled with protein-free buffer. A heating rate of 60 °C h^−1 was set, and the measurement cell worked under an excess pressure of 0.2 kPa to avoid air bubble formation during the heating. The heat absorption during the denaturation process was measured by subtracting the instrumental baseline from the sample trace and normalizing for protein concentration. To test the effect of the ligand on protein stability, analysis was also performed on both proteins in the presence of punicalagin (25 µM final concentration). The melting points (Tm, temperature at which excess heat capacity reaches a maximum) were directly observable from the thermogram. Nevertheless, data deconvolution using the Origin software provided by MicroCal was necessary to obtain Tm values.

PDIA1 [5] = target: T2, PDIA1 (Homo sapiens, UniProt P07237); assay: Isothermal titration calorimetry, PDIA1; assay type: binding; details: ITC, PDIA1 reduced form, 25 °C
T2 construct: The pOLR130 plasmid encoding mature human PDIA1 with an N-terminal His6x-tag; His6 (N); made in house; host or cells: E. coli BL21
Protocol: as §1

PDIA1 [6] = target: T2, PDIA1; assay: Differential scanning calorimetry thermal denaturation, PDIA1; assay type: binding; details: reduced PDIA1 5 µM, punicalagin 25 µM
Protocol: as §4

PDIA1 [7] = target: T2, PDIA1; assay: Disulfide reductase activity with di-E-GSSG, PDIA1; assay type: biochemical; details: PDIA1, di-E-GSSG substrate
Protocol: as §2, §3

PDIA1 [8] = target: T2, PDIA1; assay: Tryptophan fluorescence quenching titration, PDIA1; assay type: binding; details: for Stern–Volmer constant KSV: 0.1 × 10^−6 M protein; for Stern–Volmer constant KSV / Kd: pH 7.4, 25 °C; for Kd: fluorescence quenching
Protocol: (§5) Protein-ligand interactions were evaluated according to the fluorescence quenching titration method using a SPEX-FluoroMax spectrofluorometer (Horiba Scientific, Piscataway, NJ, USA). Emission spectra were recorded from 300 to 400 nm with an excitation wavelength set at 290 nm. The emission slit width was fixed to provide a 2 nm bandpass for all experiments. Scan speed was set at 120 nm min^−1. A total of 50 µM PDIA1 and PDIA3 stock solutions were reduced by adding DTT 5 mM. […] The titrations were performed by stepwise additions, at 5 min time intervals, of punicalagin solution from 0 to 4 µM (punicalagin 0.2 mM in PBS pH 7.4 freshly prepared from a 5 mM stock solution in water). Blank spectra for each experiment (no protein added) were performed in parallel for background determination. The emission spectrum of the protein was recorded three times, and the average reading values were then used for quenching analyses as already described.
(§6) Quenching of intrinsic tryptophan fluorescence at 338 nm has been analyzed by Stern–Volmer equation (Fo/F = 1 + KSV[L]), where F and F0 are the fluorescence intensity, respectively with or without ligand (L), and KSV is the Stern–Volmer constant value. Based on obtained results, punicalagin is able to quench the fluorescence of both proteins with a Stern–Volmer constant always greater than 1.0 × 10^4 M^−1 (Figure 2B and Table 1). […] In order to further characterize the binding process, data were analyzed using the equation described by Bi et al. and the reiterative calculation process described by Sun et al., providing an estimation of the Kd values (Table 1). Punicalagin binds both PDIAs in the micro-molar order of magnitude, showing a slightly greater affinity toward PDIA3, which tryptophan residues appear more quenchable upon punicalagin binding.

PDIA3 [9] = target: T1, PDIA3; parameters: method as in PMID 29425676; details: PDIA3 reductase activity, non-competitive inhibitor; cited from earlier work
PDIA3 [10] = target: T1, PDIA3; assay: Tryptophan fluorescence quenching titration, PDIA3; assay type: binding; details: for Stern–Volmer constant KSV: 0.1 × 10^−6 M protein; for Stern–Volmer constant KSV / Kd: pH 7.4, 25 °C; for Kd: fluorescence quenching
Protocol: as §5, §6

T2 sequence (P07237 18-508): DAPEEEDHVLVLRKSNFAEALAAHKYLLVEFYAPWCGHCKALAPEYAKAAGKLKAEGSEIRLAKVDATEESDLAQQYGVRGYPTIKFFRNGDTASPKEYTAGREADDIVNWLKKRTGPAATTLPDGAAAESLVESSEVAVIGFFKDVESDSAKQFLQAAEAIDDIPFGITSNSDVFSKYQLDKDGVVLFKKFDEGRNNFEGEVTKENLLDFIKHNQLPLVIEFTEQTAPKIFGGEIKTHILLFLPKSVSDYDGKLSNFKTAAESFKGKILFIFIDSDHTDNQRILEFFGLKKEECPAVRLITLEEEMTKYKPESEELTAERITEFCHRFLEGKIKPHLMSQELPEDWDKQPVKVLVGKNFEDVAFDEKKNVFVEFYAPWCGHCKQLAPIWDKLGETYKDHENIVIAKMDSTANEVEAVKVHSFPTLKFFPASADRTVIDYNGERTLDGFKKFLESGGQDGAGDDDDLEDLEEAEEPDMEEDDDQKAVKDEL

Compound: O=C1O[C@H]2[C@@H]3OC(=O)c4cc(O)c(O)c(O)c4-c4c(O)c(O)c5oc(=O)c6c(c(O)c(O)c7oc(=O)c4c5c76)-c4c(cc(O)c(O)c4O)C(=O)OC[C@H]3OC(O)[C@@H]2OC(=O)c2cc(O)c(O)c(O)c2-c2c1cc(O)c(O)c2O (mixture of isomers) [punicalagin]
- Kd (PDIA3 [1]): 1.2 ± 0.3 µM
- TΔS (PDIA3 [1]): 6.8 ± 0.4 kcal/mol
- ΔH (PDIA3 [1]): -1.1 ± 0.2 kcal/mol
- solubility in water [2]: soluble in water
- IC50 (PDIA3 [3]): 1.5 ± 0.2 µM
- Tm of first endothermic peak in presence of punicalagin (PDIA3 [4]; protein alone 44.9 °C): 40.4 °C
- Tm of second endothermic peak in presence of punicalagin (PDIA3 [4]; protein alone 53.9 °C): 51.6 °C
- Kd (PDIA1 [5]): 1 ± 0.2 µM
- TΔS (PDIA1 [5]): 5.6 ± 0.5 kcal/mol
- ΔH (PDIA1 [5]): -2.7 ± 0.4 kcal/mol
- Tm of first endothermic peak in presence of punicalagin (PDIA1 [6]; protein alone 46.0 °C): 42 °C
- Tm of second endothermic peak in presence of punicalagin (PDIA1 [6]; protein alone 61.0 °C): 60 °C
- IC50 (PDIA1 [7]): 6.1 ± 0.6 µM
- Quenching constant Kq (PDIA1 [8]; PDIA1, KSV = Kqτ, τ in the order of 1.0 × 10^−8 s): greater than 1.0 × 10^10 M^1s^−1
- Stern–Volmer constant (bound stated in text) (PDIA1 [8]; PDIA1, both proteins always greater): greater than 1.0 × 10^4 M^−1
- Stern–Volmer constant KSV (PDIA1 [8]; PDIA1 not reduced form): 183.2 ± 2.7 M^−1 × 10^3
- Stern–Volmer constant KSV (PDIA1 [8]; PDIA1 reduced form): 97.9 ± 2.1 M^−1 × 10^3
- Kd (PDIA1 [8]; PDIA1 not reduced form): 4.9 µM
- Kd (PDIA1 [8]; PDIA1 reduced form): 11.9 µM
- Ki (PDIA3 [9]): 0.39 µM
- Quenching constant Kq (PDIA3 [10]; PDIA3, KSV = Kqτ, τ in the order of 1.0 × 10^−8 s): greater than 1.0 × 10^10 M^1s^−1
- Stern–Volmer constant (bound stated in text) (PDIA3 [10]; PDIA3, both proteins always greater): greater than 1.0 × 10^4 M^−1
- Stern–Volmer constant KSV (PDIA3 [10]; PDIA3 not reduced form): 240.4 ± 3.6 M^−1 × 10^3
- Stern–Volmer constant KSV (PDIA3 [10]; PDIA3 reduced form): 157.1 ± 1.9 M^−1 × 10^3
- Kd (PDIA3 [10]; PDIA3 not reduced form): 3.9 µM
- Kd (PDIA3 [10]; PDIA3 reduced form): 10 µM
